Consider eight compounds from patent US20240050466A1, “CELLULAR HEALTH NUTRITIONAL PRODUCT” (GLAXOSMITHKLINE CONSUMER HEALTHCARE HOLDINGS (US) LLC, priority 2020, published 2024).

Data set [1] is described as follows: Summary of bioefficacy, plausibility and criticality of micronutrients in F2. To be noted: grade Low/medium/High, key not given. The source says:
Summary Table of Bioefficacy, Plausibility and Criticality of Micronutrients in F2

The next data set concerns gene expression. To be noted: hesperidin intake in humans; cited from earlier work.
For data set [2] the following is noted: cited from earlier work.
For data set [3] the following is noted: in vivo, cited from earlier work.

`NCCC(=O)N[C@@H](Cc1cnc[nH]1)C(=O)O` [Carnosine, L-Carnosine]: in data set [1], the Bioefficacy result is given as “Low”.
`COc1ccc([C@@H]2CC(=O)c3c(O)cc(O[C@@H]4O[C@H](CO[C@@H]5O[C@@H](C)[C@H](O)[C@@H](O)[C@H]5O)[C@@H](O)[C@H](O)[C@H]4O)cc3O2)cc1O` [Hesperidin, hesperidin]: the Bioefficacy entry in data set [1] is listed as “medium”. Moreover, the “number of genes whose expression is modulated” value in the data set with gene expression is “about 1,819 genes”.
Regarding `CC1=C[C@H](O)CC(C)(C)[C@H]1/C=C/C(C)=C/C=C/C(C)=C/C=C/C=C(C)/C=C/C=C(C)/C=C/C1=C(C)C[C@@H](O)CC1(C)C` [Lutein, trans-lutein], the Bioefficacy result in data set [1] was “medium”.
`CC(C)=CCC/C(C)=C/C=C/C(C)=C/C=C/C(C)=C/C=C/C=C(C)/C=C/C=C(C)/C=C/C=C(\C)CCC=C(C)C` [Lycopene, lycopene]: the Bioefficacy result in data set [1] is given as “High”.
With `CC(=O)Oc1c(C)c(C)c2c(c1C)CCC(C)(CCC[C@H](C)CCC[C@H](C)CCCC(C)C)O2` (stereo partly drawn) [RRRDL-alpha-Tocopherol Acetate], the “safe upper limit for adults” value in data set [2] is 273 mg/day.
Take `C[Se]CC[C@H](N)C(=O)O` [Selenium, selenomethionine]: the Bioefficacy result in data set [1] is “medium”. Besides, the “reference dose (RfD) or NOAEL for Se” value in data set [3] (human) was 350 µg/day. Moreover, the “reference dose (RfD) or NOAEL for Se per body weight” value in data set [3] was 5 ug Se/(kg body per day).
As for `O=C1O[C@H]([C@@H](O)CO)C(O)=C1O` [Vitamin C, ascorbic acid], in data set [1], the Bioefficacy entry is “medium”.
On the same count and under the same terms, the result for Vitamin E reads “Low”.
